Source: patent US8309552B2, “Immunomodulating heterocyclic compounds” (Medigene AG, priority 2003, dated 2012)

Target: T1, CD80-CD28 interaction (Homo sapiens, UniProt P33681)
T1 sequence (P33681 35-242 limits assumed): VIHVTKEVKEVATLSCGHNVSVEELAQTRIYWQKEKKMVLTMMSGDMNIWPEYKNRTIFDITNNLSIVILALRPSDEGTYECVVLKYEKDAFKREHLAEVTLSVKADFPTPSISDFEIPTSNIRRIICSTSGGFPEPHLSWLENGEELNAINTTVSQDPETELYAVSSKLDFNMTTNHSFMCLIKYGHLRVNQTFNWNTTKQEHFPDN
Assay: Homogenous Time Resolved Fluorescence (HTRF) assay, cell free
Type: binding
Details: cell free HTRF assay; concentration series 100 μM-1.7 nM; 4 hours at room temperature; read-out: Activity (EC50 in the HTRF assay)
Procedure, shortened: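 In pH7.8 Tris-HCl/NaCl buffer with 0.1% BSA, a 100 μM-1.7 nM compound series was incubated for 4 h at room temperature with CD28 and CD80 fusions carrying europium and APC via linker antibodies. Time-resolved signals at 665 and 615 nm were read after 340 nm excitation; a C215 Fab swap defined background. EC50 given as banded classes.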

Row | SMILES | EC50 [nM]
1 | CS(=O)(=O)c1ccc(CN2CCC(NC(=O)c3ccc(-n4[nH]c5c(nnc6c(F)cccc65)c4=O)cc3)CC2)cc1 [Example 380] | < 1000
2 | CCCCNCCNC(=O)c1ccc(-n2[nH]c3c(nnc4ccc(F)cc43)c2=O)cc1 [Example 384] | < 1000
3 | CC(C)NCCCNC(=O)c1ccc(-n2[nH]c3c(nnc4ccc(F)cc43)c2=O)cc1 [Example 385] | < 1000
4 | O=C(NCCCCO)c1ccc(-n2[nH]c3c(nnc4ccc(F)cc43)c2=O)cc1 [Example 386] | < 1000
5 | CN(C)CCCNC(=O)c1ccc(-n2[nH]c3c(nnc4cccc(F)c43)c2=O)cc1 [Example 387] | < 1000
6 | O=C(NCCCCN1CCCC1)c1ccc(-n2[nH]c3c(nnc4cccc(F)c43)c2=O)cc1 [Example 388] | < 1000
7 | O=C(NCCCNC1CCCCC1)c1ccc(-n2[nH]c3c(nnc4cccc(F)c43)c2=O)cc1 [Example 389] | < 1000
8 | CN1C(C)(C)CC(NC(=O)c2ccc(-n3[nH]c4c(nnc5cccc(F)c54)c3=O)cc2)CC1(C)C [Example 390] | < 1000
9 | CN1CCC(NC(=O)c2ccc(-n3[nH]c4c(nnc5cccc(F)c54)c3=O)cc2)CC1 [Example 391] | < 1000
10 | CCN(CC)CCCNC(=O)c1ccc(-n2[nH]c3c(nnc4cccc(F)c43)c2=O)cc1 [Example 392] | < 1000
11 | O=C(NCCCN1CCCC1)c1ccc(-n2[nH]c3c(nnc4cccc(F)c43)c2=O)cc1 [Example 393] | < 1000
12 | CC1CCCCN1CCCNC(=O)c1ccc(-n2[nH]c3c(nnc4cccc(F)c43)c2=O)cc1 (centres unmarked) [Example 394] | < 1000
13 | CC(C)NCCCNC(=O)c1ccc(-n2[nH]c3c(nnc4cccc(F)c43)c2=O)cc1 [Example 395] | < 1000
14 | CNCCCNC(=O)c1ccc(-n2[nH]c3c(nnc4cccc(F)c43)c2=O)cc1 [Example 396] | < 1000
15 | O=C(NCCCN1CCOCC1)c1ccc(-n2[nH]c3c(nnc4cccc(F)c43)c2=O)cc1 [Example 397] | < 1000
16 | CCCCN(CCCC)CCCNC(=O)c1ccc(-n2[nH]c3c(nnc4cccc(F)c43)c2=O)cc1 [Example 398] | < 1000
17 | O=C(NC1CCN(Cc2ccccc2)C1)c1ccc(-n2[nH]c3c(nnc4cccc(F)c43)c2=O)cc1 (centres unmarked) [Example 399] | < 1000
18 | CC(C)(C)NC(=O)c1ccc(-n2[nH]c3c(nnc4cccc(F)c43)c2=O)cc1 [Example 400] | < 1000
19 | O=C(NC1CN2CCC1CC2)c1ccc(-n2[nH]c3c(nnc4cccc(F)c43)c2=O)cc1 (centres unmarked) [Example 401] | < 1000
20 | O=C(c1ccc(-n2[nH]c3c(nnc4cccc(F)c43)c2=O)cc1)N1CCC(N2CCCCC2)CC1 [Example 402] | 1000 to 10000
21 | CC1(C)CC(NC(=O)c2ccc(-n3[nH]c4c(nnc5cccc(F)c54)c3=O)cc2)CC(C)(C)N1 [Example 403] | < 1000
22 | CN(C)CC(C)(C)CNC(=O)c1ccc(-n2[nH]c3c(nnc4cccc(F)c43)c2=O)cc1 [Example 404] | < 1000
23 | NC1CCC(NC(=O)c2ccc(-n3[nH]c4c(nnc5cccc(F)c54)c3=O)cc2)CC1 (centres unmarked) [Example 405] | < 1000
24 | Cc1ccc2nnc3c(=O)n(-c4ccc(C(=O)NCCCN(C)C)cc4)[nH]c3c2c1 [Example 406] | < 1000
25 | Cc1ccc2nnc3c(=O)n(-c4ccc(C(=O)NCCCNC5CCCCC5)cc4)[nH]c3c2c1 [Example 407] | < 1000

Row | SMILES | EC50 [nM]
26 | Cc1ccc2nnc3c(=O)n(-c4ccc(C(=O)NC5CC(C)(C)N(C)C(C)(C)C5)cc4)[nH]c3c2c1 [Example 408] | < 1000
27 | Cc1ccc2nnc3c(=O)n(-c4ccc(C(=O)NCCCCN5CCCC5)cc4)[nH]c3c2c1 [Example 409] | < 1000
28 | NC1CCC(NC(=O)c2ccc(-n3[nH]c4c(nnc5c(F)cccc54)c3=O)cc2)CC1 (centres unmarked) [Example 410] | < 1000
29 | CN(C)CCCNC(=O)c1ccc(-n2[nH]c3c(nnc4c(Cl)cccc43)c2=O)cc1 [Example 411] | < 1000
30 | O=C(NCCCNC1CCCCC1)c1ccc(-n2[nH]c3c(nnc4c(Cl)cccc43)c2=O)cc1 [Example 412] | < 1000
31 | O=C(NCCCCN1CCCC1)c1ccc(-n2[nH]c3c(nnc4c(Cl)cccc43)c2=O)cc1 [Example 413] | < 1000
32 | CN(C)CCCNC(=O)c1ccc(-n2[nH]c3c(nnc4c(F)cc(F)cc43)c2=O)cc1 [Example 414] | < 1000
33 | O=C(NCCCNC1CCCCC1)c1ccc(-n2[nH]c3c(nnc4c(F)cc(F)cc43)c2=O)cc1 [Example 415] | < 1000
34 | O=C(NCCCCN1CCCC1)c1ccc(-n2[nH]c3c(nnc4c(F)cc(F)cc43)c2=O)cc1 [Example 416] | < 1000
35 | CNCCCNC(=O)c1ccc(-n2[nH]c3c(nnc4ccc(OC)cc43)c2=O)cc1 [Example 418] | < 1000
36 | O=C(NCCCCN1CCSCC1)c1ccc(-n2[nH]c3c(nnc4c(F)cccc43)c2=O)cc1 [Example 419] | < 1000
37 | CN(C)CC(C)(C)CNC(=O)c1ccc(-n2[nH]c3c(nnc4c(F)cccc43)c2=O)cc1 [Example 420] | < 1000
38 | O=C(c1ccc(-n2[nH]c3c(nnc4c(F)cccc43)c2=O)cc1)N1CCC(N2CCCCC2)CC1 [Example 421] | 1000 to 10000
39 | O=C(NC1CCC1)c1ccc(-n2[nH]c3c(nnc4c(F)cccc43)c2=O)cc1 [Example 424] | < 1000
40 | O=C(NC1CCCC1)c1ccc(-n2[nH]c3c(nnc4c(F)cccc43)c2=O)cc1 [Example 425] | < 1000
41 | O=C(NCCF)c1ccc(-n2[nH]c3c(nnc4c(F)cccc43)c2=O)cc1 [Example 426] | < 1000
42 | CN1C(C)(C)CC(NC(=O)c2ccc(-n3[nH]c4c(nnc5ccc(F)cc54)c3=O)cc2)CC1(C)C [Example 427] | < 1000
43 | CNCCCNC(=O)c1ccc(-n2[nH]c3c(nnc4c(F)ccc(F)c43)c2=O)cc1 [Example 428] | < 1000
44 | O=C(NCCCCN1CCCC1)c1ccc(-n2[nH]c3c(nnc4c(F)ccc(F)c43)c2=O)cc1 [Example 430] | < 1000
45 | CN1C(C)(C)CC(NC(=O)c2ccc(-n3[nH]c4c(nnc5c(F)ccc(F)c54)c3=O)cc2)CC1(C)C [Example 431] | < 1000
46 | CCN(C)CCCCNC(=O)c1ccc(-n2[nH]c3c(nnc4c(F)cccc43)c2=O)cc1 [Example 432] | < 1000
47 | O=C(NCCCCN1CCOCC1)c1ccc(-n2[nH]c3c(nnc4c(F)cccc43)c2=O)cc1 [Example 434] | < 1000
48 | C=CCN(C)CCCCNC(=O)c1ccc(-n2[nH]c3c(nnc4c(F)cccc43)c2=O)cc1 [Example 435] | < 1000
49 | CN(CCCCNC(=O)c1ccc(-n2[nH]c3c(nnc4c(F)cccc43)c2=O)cc1)C1CCCCC1 [Example 436] | < 1000

Same assay, conditions: cell-free HTRF, concentration series 100 μM-1.7 nM, 4 hours at room temperature; read-out: Activity (EC50 in the HTRF assay)

Row | SMILES | EC50 [nM]
50 | O=C(NCCCCF)c1ccc(-n2[nH]c3c(nnc4c(F)cccc43)c2=O)cc1 [Example 437] | < 1000
51 | CN(CCCNC(=O)c1ccc(-n2[nH]c3c(nnc4c(F)cccc43)c2=O)cc1)c1ccccc1 [Example 438] | 1000 to 10000
52 | CC1CC(C)(C)C(CNC(=O)c2ccc(-n3[nH]c4c(nnc5c(F)cccc54)c3=O)cc2)C1N (centres unmarked) [Example 439] | < 1000
53 | O=C(NC1CCNCC1)c1ccc(-n2[nH]c3c(nnc4c(F)cccc43)c2=O)cc1 [Example 440] | < 1000
54 | CC(N)C(C)CNC(=O)c1ccc(-n2[nH]c3c(nnc4c(F)cccc43)c2=O)cc1 (centres unmarked) [Example 443] | < 1000
55 | O=C(NCC1CCNCC1)c1ccc(-n2[nH]c3c(nnc4c(F)cccc43)c2=O)cc1 [Example 444] | < 1000
56 | NCCCNC(=O)c1ccc(-n2[nH]c3c(nnc4c(F)cccc43)c2=O)cc1 [Example 445] | < 1000
57 | CN(C)CCCNC(=O)c1ccc(-n2[nH]c3c(nnc4ccc(Cl)cc43)c2=O)cc1 [Example 446] | < 1000
58 | CN1C(C)(C)CC(NC(=O)c2ccc(-n3[nH]c4c(nnc5ccc(Cl)cc54)c3=O)cc2)CC1(C)C [Example 447] | < 1000
59 | O=C(NCCCCN1CCCC1)c1ccc(-n2[nH]c3c(nnc4ccc(Cl)cc43)c2=O)cc1 [Example 449] | < 1000
60 | CCNC(=O)c1ccc(-n2[nH]c3c(nnc4c(F)cccc43)c2=O)cc1 [Example 450] | < 1000
61 | O=C(NCCCN1CCCCCC1)c1ccc(-n2[nH]c3c(nnc4c(F)cccc43)c2=O)cc1 [Example 451] | < 1000
62 | CCCN(CC)C(=O)c1ccc(-n2[nH]c3c(nnc4c(F)cccc43)c2=O)cc1 [Example 452] | 1000 to 10000
63 | CC1CCCCN1CCCCNC(=O)c1ccc(-n2[nH]c3c(nnc4c(F)cccc43)c2=O)cc1 (centres unmarked) [Example 454] | < 1000
64 | CC(C)(C)CNC(=O)c1ccc(-n2[nH]c3c(nnc4c(F)cccc43)c2=O)cc1 [Example 455] | < 1000
65 | O=C(NC1CCN(CC2CCCCC2)CC1)c1ccc(-n2[nH]c3c(nnc4c(F)cccc43)c2=O)cc1 [Example 456] | < 1000
66 | O=C(NC1CCN(CCCCc2ccccc2)CC1)c1ccc(-n2[nH]c3c(nnc4c(F)cccc43)c2=O)cc1 [Example 457] | < 1000
67 | C=CCN(CC=C)CCCCNC(=O)c1ccc(-n2[nH]c3c(nnc4c(F)cccc43)c2=O)cc1 [Example 459] | < 1000
68 | CC1CN(CCCCNC(=O)c2ccc(-n3[nH]c4c(nnc5c(F)cccc54)c3=O)cc2)CC(C)O1 (centres unmarked) [Example 460] | < 1000
69 | CC1CN(C(=O)c2ccc(-n3[nH]c4c(nnc5c(F)cccc54)c3=O)cc2)CC(C)O1 (centres unmarked) [Example 461] | < 1000
70 | O=C(NCCCCN1CCCCCC1)c1ccc(-n2[nH]c3c(nnc4c(F)cccc43)c2=O)cc1 [Example 462] | < 1000
71 | O=C(c1ccc(-n2[nH]c3c(nnc4c(F)cccc43)c2=O)cc1)N1CCCCCC1 [Example 463] | < 1000
